Earlier results as cited in paper PMC3045272 (Acta Crystallographica Section D: Biological Crystallography, 2011).

Test system: Cn (calcineurin)
Design: method as in Landrieu et al., 2010
Details: modification of the fourth residue; ref Landrieu et al., 2010

Substance: Debio 025
- binding of the compound–CypA complex to Cn: prevents binding of the Debio 025–CypA complex to Cn
